Measurements from ChEMBL document CHEMBL5291721, “A preclinical secondary pharmacology resource illuminates target-adverse drug reaction associations of marketed drugs” (Nat Commun, 2023).

Experiments:
[1] = target: T1, Gastrin/cholecystokinin type B receptor (Homo sapiens, UniProt P32239)
T1 sequence (P32239 whole entry): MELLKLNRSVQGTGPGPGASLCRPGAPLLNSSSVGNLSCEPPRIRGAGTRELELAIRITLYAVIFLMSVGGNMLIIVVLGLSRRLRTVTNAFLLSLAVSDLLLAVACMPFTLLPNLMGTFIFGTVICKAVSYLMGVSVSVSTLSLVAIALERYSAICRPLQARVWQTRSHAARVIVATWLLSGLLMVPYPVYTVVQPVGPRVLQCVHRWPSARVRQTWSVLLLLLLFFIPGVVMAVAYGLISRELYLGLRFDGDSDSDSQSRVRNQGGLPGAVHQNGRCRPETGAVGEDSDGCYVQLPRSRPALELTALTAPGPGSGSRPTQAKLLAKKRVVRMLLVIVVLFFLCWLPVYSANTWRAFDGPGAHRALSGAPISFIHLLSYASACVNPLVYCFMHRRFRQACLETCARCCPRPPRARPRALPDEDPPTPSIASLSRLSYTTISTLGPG

Cannabinoid receptor 1 = Cannabinoid receptor 1 (Homo sapiens, UniProt P21554)
Sequence of Cannabinoid receptor 1 (P21554 whole entry): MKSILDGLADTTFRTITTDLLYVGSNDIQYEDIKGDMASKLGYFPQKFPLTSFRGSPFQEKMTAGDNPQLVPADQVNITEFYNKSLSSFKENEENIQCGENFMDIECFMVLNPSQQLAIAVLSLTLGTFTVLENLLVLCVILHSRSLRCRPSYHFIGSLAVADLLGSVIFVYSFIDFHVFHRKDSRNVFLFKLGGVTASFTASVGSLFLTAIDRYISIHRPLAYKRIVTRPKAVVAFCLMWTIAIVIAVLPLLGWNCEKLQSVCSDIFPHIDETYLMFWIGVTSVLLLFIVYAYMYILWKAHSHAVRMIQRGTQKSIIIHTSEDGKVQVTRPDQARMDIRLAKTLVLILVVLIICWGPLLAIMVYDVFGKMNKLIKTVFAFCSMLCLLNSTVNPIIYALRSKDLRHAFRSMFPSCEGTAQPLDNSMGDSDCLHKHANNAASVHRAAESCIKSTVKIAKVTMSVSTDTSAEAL

Endothelin-1 receptor = target: T2, Endothelin-1 receptor (Homo sapiens, UniProt P25101)
T2 sequence (P25101 whole entry): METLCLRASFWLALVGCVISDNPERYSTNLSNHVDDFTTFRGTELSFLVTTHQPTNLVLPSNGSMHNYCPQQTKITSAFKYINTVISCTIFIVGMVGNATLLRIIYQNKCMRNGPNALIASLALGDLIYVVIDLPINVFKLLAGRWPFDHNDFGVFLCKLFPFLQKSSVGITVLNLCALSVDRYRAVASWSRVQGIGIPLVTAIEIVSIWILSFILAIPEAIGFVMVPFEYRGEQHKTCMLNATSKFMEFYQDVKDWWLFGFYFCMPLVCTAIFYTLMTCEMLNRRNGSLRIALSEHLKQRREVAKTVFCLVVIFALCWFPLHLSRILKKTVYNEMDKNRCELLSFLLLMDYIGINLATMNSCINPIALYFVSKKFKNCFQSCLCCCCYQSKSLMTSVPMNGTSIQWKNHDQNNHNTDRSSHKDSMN

[2] = target: Growth hormone secretagogue receptor type 1 (Homo sapiens, UniProt Q92847)
Sequence of Growth hormone secretagogue receptor type 1 (Q92847 whole entry): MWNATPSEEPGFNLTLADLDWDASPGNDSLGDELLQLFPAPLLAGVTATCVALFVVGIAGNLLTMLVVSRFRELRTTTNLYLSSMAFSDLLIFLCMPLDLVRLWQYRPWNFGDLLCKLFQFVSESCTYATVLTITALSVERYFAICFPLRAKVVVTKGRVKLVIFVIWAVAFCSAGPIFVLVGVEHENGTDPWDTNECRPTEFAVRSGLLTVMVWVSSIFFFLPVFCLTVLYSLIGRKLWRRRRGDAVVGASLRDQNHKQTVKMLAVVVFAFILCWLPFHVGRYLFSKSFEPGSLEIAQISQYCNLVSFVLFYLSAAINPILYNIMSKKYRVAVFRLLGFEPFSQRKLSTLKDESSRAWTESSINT

[3] = target: 5-hydroxytryptamine receptor 2A (Homo sapiens, UniProt P28223); assay type: functional, cell-based
Sequence of 5-hydroxytryptamine receptor 2A (P28223 whole entry): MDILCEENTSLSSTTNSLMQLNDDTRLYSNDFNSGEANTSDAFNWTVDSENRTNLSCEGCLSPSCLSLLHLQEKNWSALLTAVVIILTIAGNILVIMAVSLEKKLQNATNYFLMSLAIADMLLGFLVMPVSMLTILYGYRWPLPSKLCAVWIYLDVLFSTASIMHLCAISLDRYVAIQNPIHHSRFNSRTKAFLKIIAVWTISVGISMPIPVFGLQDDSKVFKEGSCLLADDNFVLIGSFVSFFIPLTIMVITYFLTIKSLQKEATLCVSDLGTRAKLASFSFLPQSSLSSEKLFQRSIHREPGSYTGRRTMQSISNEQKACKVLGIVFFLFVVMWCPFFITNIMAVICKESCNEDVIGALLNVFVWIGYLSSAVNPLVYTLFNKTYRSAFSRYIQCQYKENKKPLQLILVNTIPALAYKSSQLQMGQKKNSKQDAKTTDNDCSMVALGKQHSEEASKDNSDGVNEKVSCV

Motilin receptor = Motilin receptor (Homo sapiens, UniProt O43193)
Sequence of Motilin receptor (O43193 whole entry): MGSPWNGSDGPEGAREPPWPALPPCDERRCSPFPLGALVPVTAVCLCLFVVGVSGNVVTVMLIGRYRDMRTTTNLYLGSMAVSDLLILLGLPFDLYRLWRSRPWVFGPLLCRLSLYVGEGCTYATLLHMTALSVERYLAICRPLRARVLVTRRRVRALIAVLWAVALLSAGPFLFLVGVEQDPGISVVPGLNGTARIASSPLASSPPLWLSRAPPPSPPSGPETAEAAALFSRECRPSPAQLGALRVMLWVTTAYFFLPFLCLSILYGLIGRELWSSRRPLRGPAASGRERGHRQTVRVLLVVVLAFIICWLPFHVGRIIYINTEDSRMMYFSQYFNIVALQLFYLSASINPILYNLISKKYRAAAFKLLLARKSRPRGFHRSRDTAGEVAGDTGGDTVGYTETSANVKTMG

[4] = target: T3, Neuropeptide Y receptor type 1 (Homo sapiens, UniProt P25929)
T3 sequence (P25929 whole entry): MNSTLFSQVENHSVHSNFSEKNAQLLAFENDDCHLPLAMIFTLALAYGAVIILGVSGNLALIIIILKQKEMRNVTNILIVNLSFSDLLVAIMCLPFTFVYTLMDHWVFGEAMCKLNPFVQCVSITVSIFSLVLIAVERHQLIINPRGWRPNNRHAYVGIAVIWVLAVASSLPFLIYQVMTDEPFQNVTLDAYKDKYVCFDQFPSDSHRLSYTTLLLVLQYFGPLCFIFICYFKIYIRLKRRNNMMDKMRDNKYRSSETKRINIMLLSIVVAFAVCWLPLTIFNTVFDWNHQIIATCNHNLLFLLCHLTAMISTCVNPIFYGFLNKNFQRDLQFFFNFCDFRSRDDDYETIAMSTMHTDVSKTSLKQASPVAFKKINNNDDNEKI

Adenosine receptor A1 = target: T4, Adenosine receptor A1 (Homo sapiens, UniProt P30542)
T4 sequence (P30542 whole entry): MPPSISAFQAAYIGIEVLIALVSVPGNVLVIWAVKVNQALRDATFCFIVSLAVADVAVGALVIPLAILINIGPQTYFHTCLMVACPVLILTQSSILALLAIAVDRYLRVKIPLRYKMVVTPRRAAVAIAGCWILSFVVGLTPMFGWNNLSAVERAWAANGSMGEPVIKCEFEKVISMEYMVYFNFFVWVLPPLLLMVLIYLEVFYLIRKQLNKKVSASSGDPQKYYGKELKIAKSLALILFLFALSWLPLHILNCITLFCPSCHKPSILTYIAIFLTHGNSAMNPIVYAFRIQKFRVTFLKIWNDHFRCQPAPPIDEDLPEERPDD

[5] = target: T5, Alpha-1A adrenergic receptor (Homo sapiens, UniProt P35348)
T5 sequence (P35348 whole entry): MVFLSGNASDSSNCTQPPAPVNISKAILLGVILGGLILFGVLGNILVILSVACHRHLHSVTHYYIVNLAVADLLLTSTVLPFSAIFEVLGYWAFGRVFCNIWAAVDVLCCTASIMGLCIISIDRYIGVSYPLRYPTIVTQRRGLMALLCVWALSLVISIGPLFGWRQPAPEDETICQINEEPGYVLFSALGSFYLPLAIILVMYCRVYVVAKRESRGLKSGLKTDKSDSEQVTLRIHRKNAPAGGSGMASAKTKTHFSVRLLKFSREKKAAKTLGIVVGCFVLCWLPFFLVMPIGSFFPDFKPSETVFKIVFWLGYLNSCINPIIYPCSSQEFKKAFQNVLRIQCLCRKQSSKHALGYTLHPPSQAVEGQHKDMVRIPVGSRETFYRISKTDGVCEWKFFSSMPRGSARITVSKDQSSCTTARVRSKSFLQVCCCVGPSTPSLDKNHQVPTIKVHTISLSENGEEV

[6] = target: T6, 5-hydroxytryptamine receptor 1A (Homo sapiens, UniProt P08908); assay type: functional, cell-based
T6 sequence (P08908 whole entry): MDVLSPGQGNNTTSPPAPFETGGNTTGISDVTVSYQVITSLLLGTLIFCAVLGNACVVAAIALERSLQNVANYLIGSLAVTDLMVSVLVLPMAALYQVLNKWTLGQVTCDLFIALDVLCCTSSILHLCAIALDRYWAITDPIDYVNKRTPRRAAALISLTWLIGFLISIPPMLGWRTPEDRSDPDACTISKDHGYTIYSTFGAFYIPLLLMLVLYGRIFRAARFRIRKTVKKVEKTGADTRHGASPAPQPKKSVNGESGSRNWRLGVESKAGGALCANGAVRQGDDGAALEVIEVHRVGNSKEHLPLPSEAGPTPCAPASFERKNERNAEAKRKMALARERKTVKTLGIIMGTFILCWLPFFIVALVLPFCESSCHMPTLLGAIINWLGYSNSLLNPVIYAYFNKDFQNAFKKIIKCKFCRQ

Melanocortin receptor 4 = Melanocortin receptor 4 (Homo sapiens, UniProt P32245)
Sequence of Melanocortin receptor 4 (P32245 whole entry): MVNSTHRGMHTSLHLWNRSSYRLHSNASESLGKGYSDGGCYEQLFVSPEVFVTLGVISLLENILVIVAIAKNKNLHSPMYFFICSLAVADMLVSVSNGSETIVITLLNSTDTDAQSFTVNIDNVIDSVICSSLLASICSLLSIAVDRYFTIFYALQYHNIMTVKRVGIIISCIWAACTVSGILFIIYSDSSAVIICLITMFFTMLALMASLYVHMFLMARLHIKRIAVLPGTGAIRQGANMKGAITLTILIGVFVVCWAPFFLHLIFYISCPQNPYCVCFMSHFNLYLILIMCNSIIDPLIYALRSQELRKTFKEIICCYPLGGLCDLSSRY
Further: assay procedure not described here.

Row | SMILES | AC50 [1] [µM] | AC50 (Cannabinoid receptor 1) [µM] | AC50 (Endothelin-1 receptor) [µM] | AC50 [2] [µM] | AC50 [3] [µM] | AC50 (Motilin receptor) [µM] | AC50 [4] [µM] | AC50 (Adenosine receptor A1) [µM] | AC50 [5] [µM] | AC50 [6] [µM] | AC50 (Melanocortin receptor 4) [µM]
1 | CN(CCCN1c2ccccc2CCc2ccccc21)CC(=O)c1ccc(Cl)cc1 [LOFEPRAMINE] | > 30 | 6.9 | > 30 | 25 | > 30 | > 30 | > 30 | – | – | – | –
2 | CCOC(=O)CC(SP(=S)(OC)OC)C(=O)OCC (configuration not stated) [MALATHION] | – | – | – | – | – | – | – | 11.5 | – | – | –
3 | CC1=NN(c2ccccc2)C(=O)C1 [EDARAVONE] | – | – | – | – | – | – | – | > 30 | – | – | –
4 | Nc1nc(-n2cc(C(=O)O)c(=O)c3cc(F)c(N4CC(O)C4)c(Cl)c32)c(F)cc1F [DELAFLOXACIN] | – | – | – | – | – | – | – | > 30 | – | – | –
5 | CN(C)CCCN1c2ccccc2Sc2ccccc21 [PROMAZINE] | > 30 | > 10 | > 30 | > 30 | – | > 10 | > 30 | – | 0.0171 | > 10 | > 30
6 | NS(=O)(=O)c1cc(Cl)c(Cl)c(S(N)(=O)=O)c1 [DICHLORPHENAMIDE] | – | > 10 | – | > 10 | > 10 | > 10 | > 10 | – | > 10 | > 10 | > 10
7 | NCc1ccccc1CC(=O)N[C@@H]1C(=O)N2C(C(=O)O)=C(CSc3nnnn3CC(=O)O)CS[C@H]12 [CEFORANIDE] | – | – | – | – | – | – | – | > 30 | – | – | –
8 | O=C(Nc1ccccc1)OCC(CN1CCCCC1)OC(=O)Nc1ccccc1 (configuration not stated) [DIPERODON] | > 30 | > 10 | > 30 | > 30 | > 30 | > 10 | > 30 | – | > 10 | > 10 | > 30
9 | CN(C/C=C/c1ccccc1)Cc1cccc2ccccc12 [NAFTIFINE] | > 30 | 9.87 | – | > 30 | – | > 10 | > 30 | – | 2.15 | > 10 | > 30
10 | CC(=O)N(CC(O)CO)c1c(I)c(C(=O)NCC(O)CO)c(I)c(C(=O)NCC(O)CO)c1I (configuration not stated) [IOHEXOL] | > 30 | – | – | > 30 | > 30 | > 10 | > 30 | – | > 10 | > 10 | > 30
11 | N[C@@H](CSCC(=O)O)C(=O)O [CARBOCYSTEINE] | > 30 | – | > 30 | > 30 | > 30 | > 30 | > 30 | – | – | > 30 | –
12 | O=P(O)(O)C(O)(Cc1cccnc1)P(=O)(O)O [RISEDRONIC ACID] | > 30 | > 30 | > 30 | > 30 | – | > 30 | > 30 | – | > 10 | > 10 | > 30
13 | C=C1C[C@@H]2[C@H](CC[C@]3(C)C(=O)CC[C@@H]23)[C@@]2(C)C=CC(=O)C=C12 [EXEMESTANE] | > 30 | > 10 | > 30 | > 30 | > 30 | > 10 | > 30 | – | > 10 | > 10 | > 30
14 | CC(C(O)c1ccc(O)cc1)N1CCC(Cc2ccccc2)CC1 (configuration not stated) [IFENPRODIL] | > 30 | – | > 30 | > 30 | > 30 | > 30 | > 30 | – | – | – | –
15 | CC(C)(N)Cc1ccc(Cl)cc1 [CHLORPHENTERMINE] | > 30 | > 10 | > 30 | > 30 | > 30 | > 10 | > 30 | – | > 10 | > 10 | > 30
16 | NS(=O)(=O)c1cc(-c2nnn[nH]2)c(NCc2cccs2)cc1Cl [AZOSEMIDE] | > 30 | – | > 30 | > 30 | > 30 | > 30 | > 30 | – | – | – | –
17 | O=C1CCC(N2C(=O)c3ccccc3C2=O)C(=O)N1 (configuration not stated) [THALIDOMIDE] | > 30 | > 10 | > 30 | > 30 | – | > 10 | > 30 | – | > 10 | > 10 | > 30
18 | C[N+](C)(C)CC(=O)O [BETAINE] | > 30 | – | > 30 | > 30 | > 30 | > 30 | > 30 | – | – | > 30 | –
19 | CCCC(=O)N1CCCN(c2nc(N)c3cc(OC)c(OC)cc3n2)CC1 [BUNAZOSIN] | > 30 | – | > 30 | > 30 | > 30 | > 30 | > 30 | – | – | > 30 | –
20 | CC(=O)N[C@H]1[C@H]([C@H](O)[C@H](O)CO)OC(C(=O)O)=C[C@@H]1N=C(N)N [ZANAMIVIR] | > 30 | > 30 | – | > 30 | > 30 | > 30 | > 30 | – | > 30 | > 30 | > 30
21 | CN(C)[C@@H]1C(O)=C(C(N)=O)C(=O)[C@@]2(O)C(O)=C3C(=O)c4c(O)ccc(Cl)c4[C@@H](O)[C@H]3C[C@@H]12 [DEMECLOCYCLINE] | – | > 10 | – | > 10 | > 10 | > 10 | > 10 | – | > 10 | > 10 | > 10
22 | C[N+](C)(C)CCOC(N)=O [CARBAMOYLCHOLINE] | – | > 10 | – | > 10 | – | > 10 | > 10 | – | > 10 | > 30 | > 10
23 | CC(C)NCC1CCc2cc(CO)c([N+](=O)[O-])cc2N1 (configuration not stated) [OXAMNIQUINE] | – | > 10 | – | > 10 | > 30 | > 10 | > 10 | – | > 10 | > 30 | > 10
